Source: the supplement of paper PMC10307832

Legend:
Experiment in all cases: relative viability (nuclei count vs DMSO), 5 days (fraction); higher = more cells survive
[1] = compound: Nc1ccn([C@@H]2O[C@H](CO)[C@@H](O)C2(F)F)c(=O)n1 [Gemcitabine] + CC(C)C[C@H](NC(=O)[C@H](Cc1ccccc1)NC(=O)c1cnccn1)B(O)O [Bortezomib] (partner 0.002 µM)
How it was run: (§1)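 Lung cancer cell lines, seeded in 1536-well plates, were treated the following day by pin tool with a single drug or with five library-drug doses (not always all listed) in √10 steps on top of a fixed anchor-drug dose. Cells were fixed and nuclei stained in one step after 5 days, and nuclei were counted. Relative viability is the nuclei count for treated wells divided by that for vehicle wells, reported as medians of duplicate plates.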

[2] = compound: Nc1ccn([C@@H]2O[C@H](CO)[C@@H](O)C2(F)F)c(=O)n1 [Gemcitabine] + CS(=O)(=O)CCNCc1ccc(-c2ccc3ncnc(Nc4ccc(OCc5cccc(F)c5)c(Cl)c4)c3c2)o1 [Lapatinib] (partner 2 µM)
How it was run: as §1

[3] = compound: Nc1ccn([C@@H]2O[C@H](CO)[C@@H](O)C2(F)F)c(=O)n1 [Gemcitabine] + NC(=O)Nc1cc(-c2cccc(F)c2)sc1C(=O)N[C@H]1CCCNC1 [AZD7762] (partner 0.2 µM)
How it was run: as §1

[4] = compound: Nc1ccn([C@@H]2O[C@H](CO)[C@@H](O)C2(F)F)c(=O)n1 [Gemcitabine] + Nc1ncn([C@H]2C[C@H](O)[C@@H](CO)O2)c(=O)n1 [Decitabine] (partner 2 µM)
How it was run: as §1

Row | Cell Line | relative viability ([1]; first compound 0.001 µM) | relative viability ([1]; first compound 0.003162 µM) | relative viability ([1]; first compound 0.01 µM) | relative viability ([1]; first compound 0.03162 µM) | relative viability ([1]; first compound 0.1 µM) | relative viability ([2]; first compound 0.001 µM) | relative viability ([2]; first compound 0.003162 µM) | relative viability ([2]; first compound 0.01 µM) | relative viability ([2]; first compound 0.03162 µM) | relative viability ([2]; first compound 0.1 µM) | relative viability ([3]; first compound 0.001 µM) | relative viability ([3]; first compound 0.003162 µM) | relative viability ([3]; first compound 0.01 µM) | relative viability ([3]; first compound 0.03162 µM) | relative viability ([3]; first compound 0.1 µM) | relative viability ([4]; first compound 0.001 µM) | relative viability ([4]; first compound 0.003162 µM) | relative viability ([4]; first compound 0.01 µM) | relative viability ([4]; first compound 0.03162 µM) | relative viability ([4]; first compound 0.1 µM)
1 | NCI-H322M | 1.35 | 0.439 | 0.334 | 0.291 | 0.234 | 0.61 | 0.362 | 0.239 | 0.227 | 0.217 | 0.458 | 0.382 | 0.356 | 0.423 | 0.419 | 0.607 | 0.445 | 0.41 | 0.457 | 0.388
2 | NCI-H460 | 1.24 | 1.09 | 0.419 | 0.0106 | 0.0083 | 1.05 | 1.11 | 0.278 | 0.0125 | 0.009 | 0.831 | 0.48 | 0.0469 | 0.026 | 0.0247 | 0.475 | 0.451 | 0.417 | 0.0447 | 0.0204
3 | NCI-H596 | 1 | 1.11 | 0.555 | 0.349 | 0.41 | 1.01 | 1.07 | 0.739 | 0.424 | 0.373 | 1.24 | 0.717 | 0.275 | 0.319 | 0.235 | 1.15 | 0.973 | 0.763 | 0.449 | 0.466
4 | NCI-H647 | 0.783 | 0.224 | 0.0897 | 0.0721 | 0.0698 | 0.742 | 0.28 | 0.0986 | 0.0734 | 0.0451 | 0.098 | 0.0427 | 0.0235 | 0.0216 | 0.0238 | 0.308 | 0.257 | 0.151 | 0.104 | 0.0673
5 | NCI-H650 | 0.847 | 0.327 | 0.201 | 0.151 | 0.175 | 0.606 | 0.269 | 0.299 | 0.149 | 0.161 | 0.359 | 0.172 | 0.204 | 0.186 | 0.161 | 0.243 | 0.237 | 0.164 | 0.175 | 0.153
6 | NCI-H727 | 0.841 | 0.405 | 0.241 | 0.258 | 0.287 | 0.843 | 0.561 | 0.262 | 0.239 | 0.281 | 0.545 | 0.45 | 0.389 | 0.311 | 0.403 | 0.846 | 0.477 | 0.569 | 0.451 | 0.47
7 | NCI-H838 | 0.911 | 0.948 | 1.02 | 0.355 | 0.0993 | 1.02 | 1.22 | 0.923 | 0.282 | 0.103 | 0.93 | 0.886 | 0.648 | 0.565 | 0.616 | 0.442 | 0.485 | 0.365 | 0.281 | 0.187
8 | NCI-H1355 | 1.17 | 0.948 | 0.521 | 0.145 | 0.16 | 0.884 | 0.825 | 0.304 | 0.153 | 0.153 | 0.434 | 0.196 | 0.112 | 0.163 | 0.132 | 0.338 | 0.294 | 0.25 | 0.198 | 0.191
9 | NCI-H1437 | 0.532 | 0.395 | 0.342 | 0.127 | 0.105 | 0.828 | 0.737 | 0.402 | 0.157 | 0.0977 | 1.16 | 0.951 | 0.171 | 0.159 | 0.124 | 0.572 | 0.553 | 0.515 | 0.364 | 0.269
10 | NCI-H1651 | 0.988 | 0.89 | 0.919 | 0.885 | 0.173 | 0.863 | 1 | 0.678 | 0.165 | 0.0838 | 0.519 | 0.435 | 0.39 | 0.0714 | 0.0892 | 0.639 | 0.406 | 0.596 | 0.509 | 0.172
11 | NCI-H1666 | 0.739 | 0.979 | 0.567 | 0.24 | 0.225 | 0.617 | 0.708 | 0.512 | 0.265 | 0.239 | 0.866 | 0.699 | 0.582 | 0.332 | 0.368 | 0.686 | 0.55 | 0.712 | 0.538 | 0.447
12 | NCI-H1734 | 1.08 | 0.862 | 0.199 | 0.157 | 0.102 | 0.985 | 0.97 | 0.421 | 0.165 | 0.0939 | 0.153 | 0.118 | 0.0866 | 0.113 | 0.0969 | 0.536 | 0.343 | 0.192 | 0.134 | 0.102
13 | NCI-H1755 | 0.952 | 0.958 | 0.84 | 0.343 | 0.312 | 0.962 | 1.04 | 0.959 | 0.35 | 0.265 | 0.462 | 0.396 | 0.236 | 0.26 | 0.245 | 0.708 | 0.667 | 0.65 | 0.568 | 0.469
14 | NCI-H1792 | 1.08 | 0.925 | 0.308 | 0.133 | 0.093 | 0.948 | 0.806 | 0.239 | 0.107 | 0.0773 | 0.166 | 0.0355 | 0.0254 | 0.0229 | 0.033 | 0.406 | 0.291 | 0.0943 | 0.0857 | 0.0713
15 | NCI-H1915 | 0.978 | 1 | 0.969 | 0.825 | 0.617 | 0.938 | 0.877 | 0.949 | 0.925 | 0.597 | 0.768 | 0.662 | 0.656 | 0.127 | 0.0991 | 0.255 | 0.262 | 0.254 | 0.258 | 0.182
16 | NCI-H1975 | 0.385 | 0.401 | 0.207 | 0.198 | 0.155 | 0.983 | 1.1 | 0.725 | 0.245 | 0.179 | 0.699 | 0.353 | 0.19 | 0.247 | 0.204 | 0.307 | 0.373 | 0.387 | 0.197 | 0.167
